Results: patent publication US20070049593A1 (priority 2004, published 2007)
pIC50: −log10 of the molar value. Counter-ions that a name gives are not always drawn.

What follows are compounds tested against T1, HCV polymerase (Hepatitis C virus genotype 1b, UniProt P26663) (assay: biochemical).
T1 construct: a region encoding NS5B (J Virol 1991 March, 65(3), 1105-13, 544 amino acids after deletion of 47 amino acids on the C-terminal); 6xHis (C); made in house; host or cells: Escherichia coli
Design: species or system HCV BK strain
Method in brief: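 Recombinant HCV BK-strain NS5B (C-terminal 47 aa deleted, His6-tagged, E. coli), 0.5 μg/ml, run with 5 μg/ml in vitro-transcribed RNA template (polyU/3′X), ATP/GTP/CTP 50 μM, UTP 2 μM plus [3H]UTP, pH 7.5, 25° C, 90 min. TCA-precipitated RNA counted by scintillation; IC50 from activity with vs without compound.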

T1 sequence (P26663 2420-2963): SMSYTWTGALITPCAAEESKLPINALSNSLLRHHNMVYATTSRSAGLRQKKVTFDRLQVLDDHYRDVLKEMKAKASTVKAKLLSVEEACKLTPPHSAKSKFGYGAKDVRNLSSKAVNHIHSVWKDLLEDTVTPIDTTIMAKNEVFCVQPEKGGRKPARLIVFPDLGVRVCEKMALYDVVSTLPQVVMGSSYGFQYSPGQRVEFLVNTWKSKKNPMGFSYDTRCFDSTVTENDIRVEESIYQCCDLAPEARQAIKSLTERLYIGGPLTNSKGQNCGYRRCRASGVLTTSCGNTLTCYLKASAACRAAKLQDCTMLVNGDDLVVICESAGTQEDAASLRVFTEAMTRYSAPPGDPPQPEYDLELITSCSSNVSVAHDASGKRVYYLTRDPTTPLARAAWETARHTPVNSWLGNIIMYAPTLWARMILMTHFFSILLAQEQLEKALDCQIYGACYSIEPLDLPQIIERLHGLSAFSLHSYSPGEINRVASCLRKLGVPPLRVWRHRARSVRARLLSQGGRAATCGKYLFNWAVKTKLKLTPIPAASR

Structure (SMILES)	pIC50
CCN(CCN1CCC(OC)CC1)c1cccc2c1OCCn1c-2c(C2CCCCC2)c2ccc(C(=O)O)cc21 [Example 2-272, 12-cyclohexyl-4-{N-ethyl-N-[2-(4-methoxypiperidin-1-yl)ethyl]amino}-6,7-dihydro-5-oxa-7a-azadibenzo[a,e]azulene-9-carboxylic acid dihydrochloride]	> 7.00
O=C(O)c1ccc2c(C3CCCCC3)c3n(c2c1)CCOc1c(-c2ccccc2)cccc1-3 [Example 2-273, 12-cyclohexyl-4-phenyl-6,7-dihydro-5-oxa-7a-azadibenzo[a,e]azulene-9-carboxylic acid]	> 7.00
CCN(CCN1CCCC(COC)C1)c1cccc2c1OCCn1c-2c(C2CCCCC2)c2ccc(C(=O)O)cc21 (stereo not shown) [Example 2-274, 12-cyclohexyl-4-{N-ethyl-N-[2-(3-methoxymethylpiperidin-1-yl)ethyl]amino}-6,7-dihydro-5-oxa-7a-azadibenzo[a,e]azulene-9-carboxylic acid dihydrochloride]	> 7.00
CCN(CCN1CCC(COC)CC1)c1cccc2c1OCCn1c-2c(C2CCCCC2)c2ccc(C(=O)O)cc21 [Example 2-275, 12-cyclohexyl-4-{N-ethyl-N-[2-(4-methoxymethylpiperidin-1-yl)ethyl]amino}-6,7-dihydro-5-oxa-7a-azadibenzo[a,e]azulene-9-carboxylic acid dihydrochloride]	> 7.00
CCCN(CCN1CCCCC1)c1cccc2c1OCCn1c-2c(C2CCCCC2)c2ccc(C(=O)NC(C)(C)C(=O)O)cc21 [Example 2-276, 2-[(12-cyclohexyl-4-{N-[2-(piperidin-1-yl)ethyl]-N-propylamino}-6,7-dihydro-5-oxa-7a-azadibenzo[a,e]azulene-9-carbonyl)amino]-2-methylpropionic acid]	> 7.00
O=C(O)c1ccc2c(C3CCCCC3)c3n(c2c1)CCOc1c-3cccc1N(CC(=O)N1CCCCC1)CC(=O)N1CCCCC1 [Example 2-277, 4-{bis[2-oxo-2-(piperidin-1-yl)ethyl]amino}-12-cyclohexyl-6,7-dihydro-5-oxa-7a-azadibenzo[a,e]azulene-9-carboxylic acid]	> 7.00
O=C(O)c1ccc2c(C3CCCCC3)c3n(c2c1)CCOc1c-3cccc1N(CCN1CCCCC1)CCN1CCCCC1 [Example 2-278, 4-{bis[2-(piperidin-1-yl)ethyl]amino}-12-cyclohexyl-6,7-dihydro-5-oxa-7a-azadibenzo[a,e]azulene-9-carboxylic acid dihydrochloride]	> 7.00
COC(=O)[C@H](Cc1ccc(F)cc1)NC(=O)c1ccc2c(C3CCCCC3)c3n(c2c1)CCOc1cc(OC)ccc1-3 [Example 2-279, methyl (S)-2-[(12-cyclohexyl-3-methoxy-6,7-dihydro-5-oxa-7a-azadibenzo[a,e]azulene-9-carbonyl)amino]-3-(4-fluorophenyl)propionate]	> 7.00
COC(=O)[C@H](Cc1c[nH]cn1)NC(=O)c1ccc2c(C3CCCCC3)c3n(c2c1)CCOc1cc(OC)ccc1-3 [Example 2-280, methyl (S)-2-[(12-cyclohexyl-3-methoxy-6,7-dihydro-5-oxa-7a-azadibenzo[a,e]azulene-9-carbonyl)amino]-3-(1H-imidazol-4-yl)propionate]	> 7.00
COC(=O)[C@@H]1Cc2ccc(O)cc2CN1C(=O)c1ccc2c(C3CCCCC3)c3n(c2c1)CCOc1cc(OC)ccc1-3 [Example 2-281, methyl (S)-2-(12-cyclohexyl-3-methoxy-6,7-dihydro-5-oxa-7a-azadibenzo[a,e]azulene-9-carbonyl)-7-hydroxy-1,2,3,4-tetrahydroisoquinoline-3-carboxylate]	6.00 to 7.00
COC(=O)c1cc2[nH]c(C(C)(C)NC(=O)c3ccc4c(C5CCCCC5)c5n(c4c3)CCOc3ccccc3-5)nc2cc1C [Example 2-282, methyl 2-{1-[(12-cyclohexyl-6,7-dihydro-5-oxa-7a-azadibenzo[a,e]azulene-9-carbonyl)amino]-1-methylethyl}-6-methyl-3H-benzimidazole-5-carboxylate]	> 7.00
Cc1cc2nc(C(C)(C)NC(=O)c3ccc4c(C5CCCCC5)c5n(c4c3)CCOc3ccccc3-5)[nH]c2cc1C(=O)O [Example 2-283]	> 7.00
COC(=O)Cn1c(C(C)(C)NC(=O)c2ccc3c(C4CCCCC4)c4n(c3c2)CCOc2ccccc2-4)nc2ccccc21 [Example 2-284, methyl (2-{1-[(12-cyclohexyl-6,7-dihydro-5-oxa-7a-azadibenzo[a,e]azulene-9-carbonyl)amino]-1-methylethyl}benzimidazol-1-yl)acetate]	> 7.00
Cn1c(C(C)(C)NC(=O)c2ccc3c(C4CCCCC4)c4n(c3c2)CCOc2ccccc2-4)nc2ccccc21 [Example 2-285, N-[1-methyl-1-(1-methyl-1H-benzimidazol-2-yl)ethyl]-12-cyclohexyl-6,7-dihydro-5-oxa-7a-azadibenzo[a,e]azulene-9-carboxamide]	> 7.00
Cn1c(NC(=O)c2ccc3c(C4CCCCC4)c4n(c3c2)CCOc2ccccc2-4)nc2ccccc21 [Example 2-286, N-(1-methyl-1H-benzimidazol-2-yl)-12-cyclohexyl-6,7-dihydro-5-oxa-7a-azadibenzo[a,e]azulene-9-carboxamide]	6.00 to 7.00
O=C(O)CN1CCC(CO)(NC(=O)c2ccc3c(C4CCCCC4)c4n(c3c2)CCOc2ccccc2-4)CC1 [Example 2-287, {4-[(12-cyclohexyl-6,7-dihydro-5-oxa-7a-azadibenzo[a,e]azulene-9-carbonyl)amino]-4-hydroxymethylpiperidin-1-yl}acetic acid monohydrochloride]	6.00 to 7.00
O=C(NCc1nc2ccccc2n1CCO)c1ccc2c(C3CCCCC3)c3n(c2c1)CCOc1ccccc1-3 [Example 2-288, N-[1-(2-hydroxyethyl)-1H-benzimidazol-2-ylmethyl]-12-cyclohexyl-6,7-dihydro-5-oxa-7a-azadibenzo[a,e]azulene-9-carboxamide]	> 7.00
CC(C)(NC(=O)c1ccc2c(C3CCCCC3)c3n(c2c1)CCOc1ccccc1-3)C(=O)N1CCOCC1 [Example 2-289, N-[1,1-dimethyl-2-(morpholin-4-yl)-2-oxoethyl]-12-cyclohexyl-6,7-dihydro-5-oxa-7a-azadibenzo[a,e]azulene-9-carboxamide]	> 7.00
CN1CCN(C(=O)C(C)(C)NC(=O)c2ccc3c(C4CCCCC4)c4n(c3c2)CCOc2ccccc2-4)CC1 [Example 2-290, N-[1,1-dimethyl-2-(4-methylpiperazin-1-yl)-2-oxoethyl]-12-cyclohexyl-6,7-dihydro-5-oxa-7a-azadibenzo[a,e]azulene-9-carboxamide]	6.00 to 7.00
CC(C)(NC(=O)c1ccc2c(C3CCCCC3)c3n(c2c1)CCOc1ccccc1-3)C(=O)N1CCN(c2ccccc2)CC1 [Example 2-291, N-[1,1-dimethyl-2-oxo-2-(4-phenylpiperazin-1-yl)ethyl]-12-cyclohexyl-6,7-dihydro-5-oxa-7a-azadibenzo[a,e]azulene-9-carboxamide]	> 7.00
Cc1nc(C(C)(C)NC(=O)c2ccc3c(C4CCCCC4)c4n(c3c2)CCOc2ccccc2-4)n(CCO)c1C [Example 2-292, N-{1-[1-(2-hydroxyethyl)-4,5-dimethyl-1H-imidazol-2-yl]-1-methylethyl}-12-cyclohexyl-6,7-dihydro-5-oxa-7a-azadibenzo[a,e]azulene-9-carboxamide]	6.00 to 7.00
Cc1nc(C(C)(C)NC(=O)c2ccc3c(C4CCCCC4)c4n(c3c2)CCOc2ccccc2-4)n(CC(=O)N(C)C)c1C [Example 2-293, N-[1-(1-dimethylcarbamoylmethyl-4,5-dimethyl-1H-imidazol-2-yl)-1-methylethyl]-12-cyclohexyl-6,7-dihydro-5-oxa-7a-azadibenzo[a,e]azulene-9-carboxamide]	6.00 to 7.00
COC1CCN(C(=O)C(C)(C)NC(=O)c2ccc3c(C4CCCCC4)c4n(c3c2)CCOc2ccccc2-4)CC1 [Example 2-294, N-[2-(4-methoxypiperidin-1-yl)-1,1-dimethyl-2-oxoethyl]-12-cyclohexyl-6,7-dihydro-5-oxa-7a-azadibenzo[a,e]azulene-9-carboxamide]	> 7.00
COCCN(C)C(=O)[C@H](Cc1ccc(O)cc1)NC(=O)c1ccc2c(C3CCCCC3)c3n(c2c1)CCOc1cc(OC)ccc1-3 [Example 2-295, N-{(S)-2-(4-hydroxyphenyl)-1-[N-(2-methoxyethyl)-N-methylcarbamoyl]ethyl}-12-cyclohexyl-3-methoxy-6,7-dihydro-5-oxa-7a-azadibenzo[a,e]azulene-9-carboxamide]	> 7.00
COCCNC(=O)[C@H](Cc1ccc(O)cc1)NC(=O)c1ccc2c(C3CCCCC3)c3n(c2c1)CCOc1cc(OC)ccc1-3 [Example 2-296, N—[(S)-2-(4-hydroxyphenyl)-1-(2-methoxyethylcarbamoyl)ethyl]-12-cyclohexyl-3-methoxy-6,7-dihydro-5-oxa-7a-azadibenzo[a,e]azulene-9-carboxamide]	> 7.00
COc1ccc2c(c1)OCCn1c-2c(C2CCCCC2)c2ccc(C(=O)N[C@@H](Cc3ccc(O)cc3)C(=O)N3CCC(OC)CC3)cc21 [Example 2-297, N—[(S)-1-(4-hydroxybenzyl)-2-(4-methoxypiperidin-1-yl)-2-oxoethyl]-12-cyclohexyl-3-methoxy-6,7-dihydro-5-oxa-7a-azadibenzo[a,e]azulene-9-carboxamide]	> 7.00
O=C(O)c1ccc2c(C3CCCCC3)c3n(c2c1)CCOc1c(-c2cccnc2)cccc1-3 [Example 2-298, 12-cyclohexyl-4-(pyridin-3-yl)-6,7-dihydro-5-oxa-7a-azadibenzo[a,e]azulene-9-carboxylic acid hydrochloride]	> 7.00
O=C(O)c1ccc2c(C3CCCCC3)c3n(c2c1)CCOc1c(-c2ccncc2)cccc1-3 [Example 2-299, 12-cyclohexyl-4-(pyridin-4-yl)-6,7-dihydro-5-oxa-7a-azadibenzo[a,e]azulene-9-carboxylic acid monohydrochloride]	> 7.00
